Test results reported in patent US20160200733A1, “SUBSTITUTED THIENO[2,3-B]PYRIDINE-2-CARBOXAMIDE ANALOGS AS POSITIVE ALLOSTERIC MODULATORS OF THE MUSCARINIC ACETYLCHOLINE RECEPTOR M4” (Vanderbilt University, priority 2013, published 2016).

Biological target: T1, mAChR hM4 (Homo sapiens, UniProt P08173)
T1 construct: expressed in transfected cells; host or cells: CHO-K1 (Chinese hamster ovary) cells
T1 sequence (P08173 1-479): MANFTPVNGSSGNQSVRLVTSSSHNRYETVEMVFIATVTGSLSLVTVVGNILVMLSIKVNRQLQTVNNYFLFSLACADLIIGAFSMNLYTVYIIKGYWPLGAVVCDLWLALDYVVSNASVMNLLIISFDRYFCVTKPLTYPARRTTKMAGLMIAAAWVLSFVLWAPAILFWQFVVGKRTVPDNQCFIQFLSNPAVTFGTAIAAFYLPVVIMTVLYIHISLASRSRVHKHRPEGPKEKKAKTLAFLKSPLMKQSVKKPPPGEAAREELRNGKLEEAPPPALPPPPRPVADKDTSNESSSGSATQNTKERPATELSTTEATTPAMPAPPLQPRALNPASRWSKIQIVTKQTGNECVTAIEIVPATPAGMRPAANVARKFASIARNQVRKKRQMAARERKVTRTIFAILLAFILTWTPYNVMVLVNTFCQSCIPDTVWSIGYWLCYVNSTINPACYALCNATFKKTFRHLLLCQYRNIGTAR
Experiment: mAChR M4 cell-based functional assay (calcium flux, potentiation of EC20 acetylcholine response)
Conditions: mAChR hM4 cell-line; for EC50: >10,000 estimated for low potency compounds lacking a plateau; for Emax at 30 µM: % ACh maximum at 30 μM
Procedure, shortened: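 CHO-K1 cells expressing human M4, loaded with Fluo-4 Ca2+ dye; potentiation of an EC20 acetylcholine response read as increase in fluorescence static ratio. EC50 and Emax from concentration-dependent increase over the EC20 response.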

| SMILES | EC50 [µM] | Emax at 30 µM [%] |
| --- | --- | --- |
| Cc1nc2sc(C(=O)NCC3CC3)c(Br)c2c(C)c1Cl [Compound 42, 3-bromo-5-chloro-N-(cyclopropylmethyl)-4,6-dimethylthieno[2,3-b]pyridine-2-carboxamide] | > 10 |  |
| Cc1nc2sc(C(=O)NC3COC3)c(Cl)c2c(C)c1Cl [Compound 126, 3,5-dichloro-4,6-dimethyl-N-(oxetan-3-yl)thieno[2,3-b]pyridine-2-carboxamide] | 0.53 | 67 |
| COc1ccc(CNC(=O)c2sc3nc(C)cc(C)c3c2I)cc1 [Compound 16, 3-iodo-N-(4-methoxybenzyl)-4,6-dimethylthieno[2,3-b]pyridine-2-carboxamide] | 2.6 | 51 |
| COc1ccc(CNC(=O)c2sc3nc(C)c(Cl)c(C)c3c2-c2cnn(C)c2)cc1F [Compound 99, 5-chloro-N-(3-fluoro-4-methoxybenzyl)-4,6-dimethyl-3-(1-methyl-1H-pyrazol-4-yl)thieno[2,3-b]pyridine-2-carboxamide] | > 10 |  |
| Cc1cc(C)c2c(Br)c(C(=O)NC(C)C)sc2n1 [Example 1, 3-bromo-N-isopropyl-4,6-dimethylthieno[2,3-b]pyridine-2-carboxamide] | > 10 |  |
| Cc1cc(C)c2c(Br)c(C(=O)NC3CCOCC3)sc2n1 [Compound 12, 3-bromo-4,6-dimethyl-N-(tetrahydro-2H-pyran-4-yl)thieno[2,3-b]pyridine-2-carboxamide] | > 10 |  |
| Cc1cc(C)c2c(C)c(C(=O)N[C@@H]3CCOC3)sc2n1 [Compound 25, (R)-3,4,6-trimethyl-N-(tetrahydrofuran-3-yl)thieno[2,3-b]pyridine-2-carboxamide] | > 10 | 60 |
| Cc1cc(C)c2c(C)c(C(=O)NCc3ccc(S(C)(=O)=O)cc3)sc2n1 [Compound 19, 3,4,6-trimethyl-N-(4-(methylsulfonyl)benzyl)thieno[2,3-b]pyridine-2-carboxamide] | 4.2 | 62 |
| COc1ccc(CNC(=O)c2sc3nc(C)c(Cl)c(C)c3c2C2CC2)cc1 [Compound 53, 5-chloro-3-cyclopropyl-N-(4-methoxybenzyl)-4,6-dimethylthieno[2,3-b]pyridine-2-carboxamide] | > 10 |  |
| Cc1cc(C)c2c(Br)c(C(=O)NCC3CC3)sc2n1 [Compound 13, 3-bromo-N-(cyclopropylmethyl)-4,6-dimethylthieno[2,3-b]pyridine-2-carboxamide] | > 10 | 29 |
| Cc1cc(C)c2c(Br)c(C(=O)NCc3ccc(S(C)(=O)=O)cc3)sc2n1 [Compound 32, 3-bromo-4,6-dimethyl-N-(4-(methylsulfonyl)benzyl)thieno[2,3-b]pyridine-2-carboxamide] | > 10 |  |
| Cc1nc2sc(C(=O)N[C@H](C)C3CC3)c(Cl)c2c(C)c1Cl [Compound 121, (R)-3,5-dichloro-N-(1-cyclopropylethyl)-4,6-dimethylthieno[2,3-b]pyridine-2-carboxamide] | > 10 |  |
| COc1ccc(C(C)NC(=O)c2sc3nc(C)cc(C)c3c2C)cc1 (stereo not shown) [Compound 29, N-(1-(4-methoxyphenyl)ethyl)-3,4,6-trimethylthieno[2,3-b]pyridine-2-carboxamide] | > 10 |  |
| Cc1cc(C)c2c(Br)c(C(=O)NCc3cccnc3)sc2n1 [Compound 9, 3-bromo-4,6-dimethyl-N-(pyridin-3-ylmethyl)thieno[2,3-b]pyridine-2-carboxamide] | 3 | 33 |
| Cc1cc(C)c2c(Br)c(C(=O)NC3(C)COC3)sc2n1 [Compound 8, 3-bromo-4,6-dimethyl-N-(3-methyloxetan-3-yl)thieno[2,3-b]pyridine-2-carboxamide] | 3.7 | 59 |
| Cc1cc(C)c2c(Br)c(C(=O)NCC(C)C)sc2n1 [Compound 11, 3-bromo-N-isobutyl-4,6-dimethylthieno[2,3-b]pyridine-2-carboxamide] | > 10 |  |
| Cc1nc2sc(C(=O)N3CCC3)c(-c3cnn(C)c3)c2c(C)c1Cl [Compound 97, azetidin-1-yl(5-chloro-4,6-dimethyl-3-(1-methyl-1H-pyrazol-4-yl)thieno[2,3-b]pyridin-2-yl)methanone] | > 10 |  |
| Cc1nc2sc(C(=O)N[C@@H](C)C3CC3)c(Cl)c2c(C)c1Cl [Compound 120, (S)-3,5-dichloro-N-(1-cyclopropylethyl)-4,6-dimethylthieno[2,3-b]pyridine-2-carboxamide] | > 10 |  |

| SMILES | EC50 [µM] | Emax at 30 µM [%] |
| --- | --- | --- |
| Cc1nc2sc(C(=O)N3CCC(c4ccccc4)C3)c(C3CC3)c2c(C)c1Cl (stereo not shown) [Compound 64, (5-chloro-3-cyclopropyl-4,6-dimethylthieno[2,3-b]pyridin-2-yl)(3-phenylpyrrolidin-1-yl)methanone] | > 10 |  |
| Cc1cc(C)c2c(C)c(C(=O)NCc3ccc4c(c3)CCO4)sc2n1 [Compound 20, N-((2,3-dihydrobenzofuran-5-yl)methyl)-3,4,6-trimethylthieno[2,3-b]pyridine-2-carboxamide] | 2.6 | 38 |
| Cc1nc2sc(C(=O)N3CCOCC3)c(-c3cnn(C)c3)c2c(C)c1Cl [Compound 110, (5-chloro-4,6-dimethyl-3-(1-methyl-1H-pyrazol-4-yl)thieno[2,3-b]pyridin-2-yl)(morpholino)methanone] | > 10 |  |
| Cc1cc(C)c2cc(C(=O)NCc3ccc(-c4ccnnc4)s3)sc2n1 [Compound 79, 4,6-dimethyl-N-((5-(pyridazin-4-yl)thiophen-2-yl)methyl)thieno[2,3-b]pyridine-2-carboxamide] | > 10 |  |
| Cc1nc2sc(C(=O)NCc3ccc(S(=O)(=O)C(F)(F)F)cc3)c(-c3cnn(C)c3)c2c(C)c1Cl [Compound 95, 5-chloro-4,6-dimethyl-3-(1-methyl-1H-pyrazol-4-yl)-N-(4-((trifluoromethyl)sulfonyl)benzyl)thieno[2,3-b]pyridine-2-carboxamide] | > 10 |  |
| Cc1nc2sc(C(=O)NC3CCS(=O)(=O)C3)c(C3CC3)c2c(C)c1Cl (stereo not shown) [Compound 51, 5-chloro-3-cyclopropyl-N-(1,1-dioxidotetrahydrothiophen-3-yl)-4,6-dimethylthieno[2,3-b]pyridine-2-carboxamide] | > 10 |  |
| Cc1cc(C)c2c(Br)c(C(=O)NC3CC3)sc2n1 [Compound 4, 3-bromo-N-cyclopropyl-4,6-dimethylthieno[2,3-b]pyridine-2-carboxamide] | 4.8 | 49 |
| Cc1cc(C)c2cc(C(=O)N3CC(c4ccccc4)C3)sc2n1 [Compound 82, (4,6-dimethylthieno[2,3-b]pyridin-2-yl)(3-phenylazetidin-1-yl)methanone] | 2.4 | 34 |
| Cc1nc2sc(C(=O)NCC3CC3)c(-c3cnn(C)c3)c2c(C)c1Cl [Compound 112, 5-chloro-N-(cyclopropylmethyl)-4,6-dimethyl-3-(1-methyl-1H-pyrazol-4-yl)thieno[2,3-b]pyridine-2-carboxamide] | > 10 |  |
| Cc1nc2sc(C(=O)N3CCN(C)CC3)c(-c3cnn(C)c3)c2c(C)c1Cl [Compound 107, (5-chloro-4,6-dimethyl-3-(1-methyl-1H-pyrazol-4-yl)thieno[2,3-b]pyridin-2-yl)(4-methylpiperazin-1-yl)methanone] | > 10 |  |
| Cc1nc2sc(C(=O)NC3CCN(C)CC3)c(C)c2c(C)c1Cl [Compound 58, 5-chloro-3,4,6-trimethyl-N-(1-methylpiperidin-4-yl)thieno[2,3-b]pyridine-2-carboxamide] | > 10 |  |
| COc1ccc(CNC(=O)c2sc3nc(C)c(Cl)c(C)c3c2Br)cc1 [Compound 47, 3-bromo-5-chloro-N-(4-methoxybenzyl)-4,6-dimethylthieno[2,3-b]pyridine-2-carboxamide] | > 10 |  |
| Cc1cc(C)c2cc(C(=O)NCc3cnn(-c4ccccc4)c3)sc2n1 [Compound 77, 4,6-dimethyl-N-((1-phenyl-1H-pyrazol-4-yl)methyl)thieno[2,3-b]pyridine-2-carboxamide] | > 10 |  |
| Cc1nc2sc(C(=O)N[C@@H](C)C3CC3)c(-c3cnn(C)c3)c2c(C)c1Cl [Compound 111, (S)-5-chloro-N-(1-cyclopropylethyl)-4,6-dimethyl-3-(1-methyl-1H-pyrazol-4-yl)thieno[2,3-b]pyridine-2-carboxamide] | > 10 |  |
| Cc1nc2sc(C(=O)NC3(C)COC3)c(C3CC3)c2c(C)c1Cl [Compound 56, 5-chloro-3-cyclopropyl-4,6-dimethyl-N-(3-methyloxetan-3-yl)thieno[2,3-b]pyridine-2-carboxamide] | 1.4 | 38 |
| Cc1cc(C)c2c(-c3cnn(C)c3)c(C(=O)NCc3cnn(-c4ccccc4)c3)sc2n1 [Compound 71, 4,6-dimethyl-3-(1-methyl-1H-pyrazol-4-yl)-N-((1-phenyl-1H-pyrazol-4-yl)methyl)thieno[2,3-b]pyridine-2-carboxamide] | > 10 |  |
| Cc1cc(C)c2c(Br)c(C(=O)N(C)Cc3ccc(S(C)(=O)=O)cc3)sc2n1 [Compound 37, 3-bromo-N,4,6-trimethyl-N-(4-(methylsulfonyl)benzyl)thieno[2,3-b]pyridine-2-carboxamide] | > 10 |  |
